Legend:
Test in all cases: Cell proliferation WST-1 assay, single dose (Example 4)
Type in all cases: cell-based
Conditions in all cases: 100 μM, 48 hours
A375 melanoma cells = system: A375 melanoma cells
Protocol: (§1) In addition, compounds were tested in RPMI-7951 cells, which also contain mutated BRaf and are resistant to BRaf inhibitors due to the overexpression of MAP3K8 (the gene encoding COT/Tp12) that provides an alternative mechanism to indirectly or directly activate ERK proteins. […] For comparison, HeLa cervical carcinoma and Jurkat T-cell leukemia cells, which are p53 defective cancer cell lines but contain no known activating mutations in the ERK pathway, were studied. […] Cell proliferation was evaluated by water soluble tetrazolium-1 (WST-1) assay as previously described. Briefly, cells (˜5000/well) were seeded in 96 well plates, allowed to recover for 16-20 hours, and then treated with the indicated test compound for 48 hours. After incubation, WST-1 reagent was added and absorbance was read at 450 nm with background subtraction taken at 650 nm. Values were normalized to the control (DMSO only treated) cells.

HL-60 leukemic cells = system: HL-60 leukemic cells
Protocol: as §1

[1] = system: HeLa cervical carcinoma cells
Protocol: as §1

[2] = system: Jurkat T-cell leukemia cells
Protocol: as §1

RPMI-7951 melanoma cells = system: RPMI-7951 melanoma cells
Protocol: as §1

SK-MEL-28 melanoma cells = system: SK-MEL-28 melanoma cells
Protocol: as §1

SMILES	Cell Viability (% of Vehicle) A375 (A375 melanoma cells)	Cell Viability (% of Vehicle) HL-60 (HL-60 leukemic cells)	Cell Viability (% of Vehicle) HeLa [1]	Cell Viability (% of Vehicle) Jurkat [2]	Cell Viability (% of Vehicle) RPMI-7951 (RPMI-7951 melanoma cells)	Cell Viability (% of Vehicle) SK-MEL-28 (SK-MEL-28 melanoma cells)
CCOc1ccc(/C=C2\SC(=O)NC2=O)cc1 [Compound 2, (Z)-5-(4-ethoxybenzylidene)thiazolidine-2,4-dione]	110 ± 10 % of Vehicle	103 ± 16 % of Vehicle	98 ± 13 % of Vehicle	104 ± 4 % of Vehicle	144 ± 2 % of Vehicle	103 ± 1 % of Vehicle
CCOc1ccc(CC2SC(=O)N(CCN)C2=O)cc1 (stereo not drawn) [Compound 6, 3-(2-aminoethyl)-5-(4-ethoxybenzyl)thiazolidine-2,4-dione]	92 ± 6 % of Vehicle	41 ± 17 % of Vehicle	90 ± 4 % of Vehicle	108 ± 10 % of Vehicle	70 ± 5 % of Vehicle	88 ± 3 % of Vehicle
CCOc1ccc(/C=C2\SC(=S)N(CCN)C2=O)cc1 [Compound 9, (Z)-3-(2-aminoethyl)-5-(4-ethoxybenzylidene)-2-thioxothiazolidin-4-one]	21 ± 10 % of Vehicle	7.9 ± 3 % of Vehicle	26 ± 6 % of Vehicle	52 ± 4 % of Vehicle	3.3 ± 2 % of Vehicle	45 ± 7 % of Vehicle
CCOc1ccc(/C=C2\CC(=O)N(CCN)C2=O)cc1 [Compound 13, (E)-1-(2-aminoethyl)-3-(4-ethoxybenzylidene)pyrrolidine-2,5-dione]	29 ± 3 % of Vehicle	58 ± 28 % of Vehicle	75 ± 2 % of Vehicle	100 ± 10 % of Vehicle	19 ± 5 % of Vehicle	65 ± 4 % of Vehicle
CCOc1ccc(/C=C2\CCN(CCN)C2=O)cc1 [Compound 17, (E)-1-(2-aminoethyl)-3-(4-ethoxybenzylidene)pyrrolidin-2-one]	95 ± 2 % of Vehicle	73 ± 9 % of Vehicle	89 ± 4 % of Vehicle	92 ± 2 % of Vehicle	96 ± 3 % of Vehicle	79 ± 6 % of Vehicle
CCOc1ccc(/C=C/C(=O)NCCN)cc1 [Compound 20, (E)-N-(2-aminoethyl)-3-(4-ethoxyphenyl)acrylamide]	81 ± 5 % of Vehicle	59 ± 25 % of Vehicle	94 ± 5 % of Vehicle	89 ± 7 % of Vehicle	93 ± 9 % of Vehicle	83 ± 4 % of Vehicle
CCOc1ccc(/C=C2\SC(=O)N(CC(C)N)C2=O)cc1 (stereo not drawn) [Compound 22b, (Z)-3-(2-aminopropyl)-5-(4-ethoxybenzylidene)thiazolidine-2,4-dione]	25 ± 4 % of Vehicle	7.3 ± 3 % of Vehicle	49 ± 7 % of Vehicle	58 ± 10 % of Vehicle	16 ± 1 % of Vehicle	32 ± 4 % of Vehicle
CCOc1ccc(/C=C2\SC(=O)N(C(C)CN)C2=O)cc1 (stereo not drawn) [Compound 22c, (Z)-3-(1-aminopropan-2-yl)-5-(4-ethoxybenzylidene)thiazolidine-2,4-dione]	13 ± 2 % of Vehicle	8.1 ± 3 % of Vehicle	45 ± 7 % of Vehicle	54 ± 10 % of Vehicle	22 ± 3 % of Vehicle	28 ± 4 % of Vehicle
CCOc1ccc(/C=C2\SC(=O)N(C[C@H](N)C(=O)OC)C2=O)cc1 [Compound 22d, (S,Z)-methyl 2-amino-3-(5-(4-ethoxybenzylidene)-2,4-dioxothiazolidin-3-yl)propanoate]	41 ± 11 % of Vehicle	25 ± 5 % of Vehicle	87 ± 4 % of Vehicle	100 ± 5 % of Vehicle	1.8 ± 0.1 % of Vehicle	33 ± 9 % of Vehicle
CCOc1ccc(/C=C2\SC(=O)N(C(CN)CN)C2=O)cc1 [Compound 22e, (Z)-3-(1,3-diaminopropan-2-yl)-5-(4-ethoxybenzylidene)thiazolidine-2,4-dione]	19 ± 4 % of Vehicle	11 ± 4 % of Vehicle	62 ± 2 % of Vehicle	81 ± 9 % of Vehicle	25 ± 3 % of Vehicle	32 ± 2 % of Vehicle
CCOc1ccc(/C=C2\SC(=O)N(CCNC)C2=O)cc1 [Compound 23a, (Z)-5-(4-ethoxybenzylidene)-3-(2-(methylamino)ethyl)thiazolidine-2,4-dione]	95 ± 2 % of Vehicle	17 ± 11 % of Vehicle	85 ± 4 % of Vehicle	83 ± 6 % of Vehicle	54 ± 7 % of Vehicle	91 ± 1 % of Vehicle
CCNCCN1C(=O)S/C(=C\c2ccc(OCC)cc2)C1=O [Compound 23b, (Z)-5-(4-ethoxybenzylidene)-3-(2-(ethylamino)ethyl)thiazolidine-2,4-dione]	51 ± 4 % of Vehicle	14 ± 4 % of Vehicle	81 ± 2 % of Vehicle	69 ± 10 % of Vehicle	60 ± 4 % of Vehicle	63 ± 10 % of Vehicle
CCOc1ccc(/C=C2\SC(=O)N(CCNCC(C)C)C2=O)cc1 [Compound 23c, (Z)-5-(4-ethoxybenzylidene)-3-(2-(isobutylamino)ethyl)thiazolidine-2,4-dione]	1.0 ± 0.1 % of Vehicle	10 ± 4 % of Vehicle	3.7 ± 0.4 % of Vehicle	2.5 ± 0.1 % of Vehicle	1.0 ± 0.1 % of Vehicle	1.3 ± 0.1 % of Vehicle
CCOc1ccc(/C=C2\SC(=O)N(CCNCc3ccccc3)C2=O)cc1 [Compound 23d, (Z)-3-(2-(benzylamino)ethyl)-5-(4-ethoxybenzylidene)thiazolidine-2,4-dione]	13 ± 1 % of Vehicle	5.0 ± 2 % of Vehicle	37 ± 1 % of Vehicle	89 ± 4 % of Vehicle	2.5 ± 0.3 % of Vehicle	25 ± 6 % of Vehicle
CCOc1ccc(/C=C2\SC(=O)N(CCNCc3ccc(C#N)cc3)C2=O)cc1 [Compound 23e, (Z)-4-(((2-(5-(4-ethoxybenzylidene)-2,4-dioxothiazolidin-3-yl)ethyl)amino)methyl)benzonitrile]	89 ± 3 % of Vehicle	75 ± 25 % of Vehicle	88 ± 2 % of Vehicle	98 ± 5 % of Vehicle	96 ± 5 % of Vehicle	96 ± 6 % of Vehicle
CCOc1ccc(/C=C2\SC(=O)N(CCN(C)C)C2=O)cc1 [Compound 24a, (Z)-3-(2-(dimethylamino)ethyl)-5-(4-ethoxybenzylidene)thiazolidine-2,4-dione]	115 ± 2 % of Vehicle	110 ± 14 % of Vehicle	90 ± 5 % of Vehicle	95 ± 1 % of Vehicle	130 ± 4 % of Vehicle	101 ± 0.3 % of Vehicle
CCOc1ccc(/C=C2\SC(=O)N(CCN(Cc3ccccc3)Cc3ccccc3)C2=O)cc1 [Compound 24b, (Z)-3-(2-(dibenzylamino)ethyl)-5-(4-ethoxybenzylidene)thiazolidine-2,4-dione]	122 ± 7 % of Vehicle	109 ± 24 % of Vehicle	92 ± 9 % of Vehicle	104 ± 2 % of Vehicle	120 ± 3 % of Vehicle	104 ± 4 % of Vehicle
CCOc1ccc(/C=C2\SC(=O)N(CCN(Cc3ccc(C#N)cc3)Cc3cccc(C#N)c3)C2=O)cc1 [Compound 24c, (Z)-3-(((4-cyanobenzyl)(2-(5-(4-ethoxybenzylidene)-2,4-dioxothiazolidin-3-yl)ethyl)amino)methyl)benzonitrile]	115 ± 1 % of Vehicle	108 ± 16 % of Vehicle	97 ± 8 % of Vehicle	100 ± 2 % of Vehicle	108 ± 9 % of Vehicle	107 ± 3 % of Vehicle
